Laboratory results reported in patent publication US9593149B2, “Amylin and calcitonin receptor agonist” (Novo Nordisk A/S, priority 2014, dated 2017).
Peptide text beside a SMILES is read from it. * marks the point of attachment. C18 diacid = O=C(O)CCCCCCCCCCCCCCCCC(=O)*

How the values were obtained:
[1] = Assay (XVII) T½ and subcutaneous bioavailability in Beagle dogs; format: in vivo
Experimental: The area under the plasma concentration versus time curve (AUC, [time×concentration]) was calculated (by the Pharsight programme) after both subcutaneous administration and intravenous administration, typically until 240-288 hours post dosing, or until last measured concentration. The AUC was calculated by extrapolating to infinity and dose normalized. The absolute bioavailability (F %) was then calculated based on the dose-corrected AUC values, namely as AUC/Dsc divided by AUC/Div×100, where Dsc is the subcutaneous dose per kg, and Div the dose per kg given intravenously. Assay (XVII)—Determination of T½ and Subcutaneous Bioavailability in Beagle Dogs […]
By protraction is meant the prolongation of the time in the body and thereby the time of action of the mimylin derivatives. This was done in PK studies, where the terminal half-life of the derivative in question was determined following i.v. administration. By terminal half-life is generally meant the period of time it takes to halve a certain plasma concentration, measured after the initial distribution phase. […]
The plasma concentration of the respective mimylin derivative was analysed using LC-MS. Individual plasma concentration-time profiles were analysed by a non-compartmental model in Phoenix WinNonlin version 6.3 (Pharsight Inc., Mountain View, Calif., USA). […]

Assay (X) pK, T½ in rat = format: in vivo, Sprague Dawley rats
Experimental: Assay (X)—pK—Determination of T½ in Rat
Pharmacokinetic (PK) studies rats were conducted in order to determine the T½ of mimylin peptide after i.v. and s.c. administration.
T½ values of the mimylin derivates of the invention is determined by pharmacokinetic studies in Sprague Dawley male rats, from Taconic Europe and the principles of laboratory animal care are followed.
An acclimatisation period of approximately 7 days was allowed before the animals entered the study. At start of the acclimatisation period the rats were in the weight range of 250-400 g.
The studies were conducted in an animal room which was illuminated to give a cycle of approximately 12 hours light and 12 hours darkness. The animals were group housed and had food and water ad lib. The animals were weighed on the days of dosing.
In the present studies the test substances were administered subcutaneously or intravenously in approximately 20 nmol/kg dose. The animals received a single subcutaneous injection to the neck for subtaneous administration or directly into the tail vein for intravenous administration. Each test substance was given to typically three but in some cases two or four animals.
A full plasma concentration-time profile, employing 8-10 sampling points, was obtained from each animal. In example blood samples were collected according to the following schedule: After subcutaneous or intravenous administration:
At each sampling time, 0.08 to 0.10 ml of blood was drawn from each animal. The blood samples were taken in the sublingual vein via venous puncture and the use of a capillary tube.
The blood samples were stabilised with EDTA. Blood samples were kept on ice for max 20 min. before centrifugation. Plasma was separated using centrifugation (i.e. at 4° C., 10 min., 1500G) and was immediately transferred to Micronic tubes or PCR plates. Approximately 40 μl plasma was transferred and was stored at −20° C. until assayed. The plasma samples were assayed for the content of mimylin compound by LCMS
The plasma concentration-time profiles were analysed by a non-compartmental pharmacokinetic analysis (NCA) using Phoenix WinNonlin 6.3 (Pharsight Inc., Mountain View, Calif., USA). NCA was performed using the individual plasma concentration-time profiles from each animal. T½ is the terminal half-life=In2/λz and was determined from λz, the first order rate constant associated with the terminal (log-linear) portion of the curve, estimated by linear regression of time vs. log concentration.

CC(C)C[C@H](NC(=O)[C@H](C)NC(=O)[C@H](C)NC(=O)[C@@H](NC(=O)[C@H](CO)NC(=O)[C@H](CC(C)C)NC(=O)[C@H](CCC(=O)O)NC(=O)[C@H](CO)NC(=O)[C@H](C)NC(=O)[C@H](CCC(=O)O)NC(=O)CCCCCCCCCCCCCCCCC(=O)O)[C@@H](C)O)C(=O)NCC(=O)N[C@@H](CCCNC(=N)N)C(=O)N[C@@H](CC(C)C)C(=O)N[C@@H](CO)C(=O)N[C@@H](C)C(=O)N[C@@H](CCC(=O)O)C(=O)N[C@@H](CC(C)C)C(=O)N[C@@H](Cc1cnc[nH]1)C(=O)N[C@@H](CCC(=O)O)C(=O)N[C@@H](CC(C)C)C(=O)N[C@@H](C)C(=O)N[C@H](C(=O)N[C@@H](CC(C)C)C(=O)N1CCC[C@H]1C(=O)N[C@@H](CCCNC(=N)N)C(=O)N[C@H](C(=O)N[C@@H](CCC(=O)O)C(=O)N[C@H](C(=O)NCC(=O)N1CCC[C@H]1C(=O)N[C@@H](CCC(=O)O)C(=O)N[C@@H](CO)C(=O)N1CCC[C@H]1C(N)=O)[C@@H](C)O)[C@@H](C)O)[C@@H](C)O [Ex. #2, [N-terminal(C18 diacid)]mimylin] ({C18 diacid}-EASELSTAALGRLSAELHELATLPRTETGPESP-NH2)
Subcutaneous bioavailability (%) ([1]; Beagle dogs): 98% | Beagle dogs iv PK, t½ ([1]; i.v., harmonic mean, n = 2): 95 h | PK rat iv T½ (Assay (X) pK, T½ in rat; i.v.): 12 h | PK rat sc T½ (Assay (X) pK, T½ in rat; s.c.): 13 h
